{
  "source": "patent US20240408175A1",
  "about": "“BMP9 OR AN AGONIST THEREOF AND ITS USES RELATED TO REDUCING METASTASIS OF CANCER” (THE UAB RESEARCH FOUNDATION, priority 2021, published 2024)",
  "key": {"SOX2 [1]": {"test_system": "SOX2", "test": "SOX2 levels in xenograft tumors (IHC, qRT-PCR)", "type": "in vivo", "conditions": "IHC and qRT-PCR, vs vehicle control-treated mice", "description": "(§1) IHC was performed using the BioCare Mach4 Universal Detection Kit. Specifically, anti-SOX2 was diluted in Da Vinci Green Diluent and incubated overnight at 4° C. in a humidified chamber. HRP was detected with 3,30-diaminobenzidine (DAB) substrate for 4 minutes. TUNEL staining was performed according to the manufacturer's instruction. Slides were examined and images captured with EVOS M7000 microscope. Cell profiler (Stirling et al., 2021) and Image J Fiji software were used for image quantification."}, "A2780CP cells": {"test_system": "A2780CP cells", "test": "Cell survival under anchorage independence, A2780CP", "type": "cell-based, human", "conditions": "dose and time course", "description": "(§2) For Live/Dead analysis under anchorage independence, 1,000 cells were seeded in 96-well hydrogel-coated ultra-low attachment (ULA) plates (Corning #4515) for times indicated. Growth factor treatment was done under low serum 2.5% FBS condition (Cells were plated in 10% FBS to allow spheroid formation before beginning treatment). Cells were then stained with 2 μM Calcein-AM and 4 μM Ethidium-homodimer for 30 min before imaging. z-stacked images were obtained using the Zeiss LSM700 Confocal microscope (Microscopy and Flow Cytometry Core, University of South Carolina) and NIKON A1 Confocal microscope (UAB High Resolution Imaging Facility). Fluorescent quantification was performed using ImageJ Fiji software to calculate the Corrected Total Cell Fluorescent (CTCF)=Integrated Density−(Area of selected cell×Mean fluorescence of background readings) per spheroid."}, "PA1-luc-GFP cells": {"test_system": "PA1-luc-GFP cells", "test": "PA1-luc-GFP intraperitoneal xenograft", "type": "in vivo, NOD-SCID mice", "description": "(§3) All animal studies were performed in accordance with the Institutional Animal Care and Use Committee at the University of Alabama Birmingham. Female SCID mice (Key resources table) at 5-7 weeks of age were housed under pathogen-free conditions at the Animal Research Facility at UAB. 1.5×10^6 GFP-luciferase SK-OV3 cells or 3×10^6 GFP-luciferase expressing PA1 cells were intraperitoneally injected. Mice were monitored daily, with girth and weight measurement taken twice a week. Tumor progression was tracked weekly using the IVIS Lumina III In vivo Imaging System (Caliper Life Sciences, MA) at UAB's Small Animal Imaging Facility. rhBMP9 was administered at the time of tumor cell injection followed by daily intraperitoneal (i.p.) injections of 1 mg/mL in 4 mM HCl+PBS+DI water (Vehicle), to achieve a final 5 mg/kg dose. For metastasis and tumor growth analysis, mice were euthanized between 21-50 days depending on the cell line. At necropsy, ascites, if present, were collected and volumes measured when possible, tumor weights in the omentum and other organs were recorded and collected when possible. For survival studies, mice that reached end-point criteria, including continued weight loss, respiratory trouble and permanent recumbency were euthanized. For microscopic analysis of tissues, formalin-fixed tissues were processed, paraffin-embedded, and sectioned at 5 μm thickness and H&E stained at UAB's histology core.\nas §1"}, "HEY parental cells": {"test_system": "HEY parental cells", "test": "Cell survival under anchorage independence, HEY parental", "type": "cell-based, human", "conditions": "1, 5, 10 nM for 24, 48, and 72 hours", "description": "as §2"}, "[2]": {"test": "Overall toxicity of daily i.p. BMP9 (body weight, kidney and liver function tests)", "type": "in vivo", "conditions": "up to 3 weeks", "description": "as §3, with “For microscopic analysis of tissues, formalin-fixed tissues were processed, paraffin-embedded, and sectioned at 5 μm thickness and H&E stained at UAB's histology core.” left out"}, "SOX2 [3]": {"test_system": "SOX2", "test": "SOX2 expression by Western blot / qRT-PCR in cancer cells", "type": "cell-based, human", "description": "(§4) Lysate and RNA preparation: 100,000-300,000 cells were seeded in a poly-HEMA coated 6-well plate for indicated times in full serum unless indicated otherwise. Cells were collected by centrifugation and lysed with trizol for RNA extraction or direct 2× lysis buffer for protein lysates.\nXenograft data were analyzed using parametric statistics as described in the legends. Survival curves were analyzed with log-rank statistics. In vitro experiments were analyzed using parametric statistics (ANOVA global test with Dunnett's/Sidak multiple comparison test as post-hoc tests as applicable and described in legend) and presented as the mean±SEM. All real time PCR's are relative semi quantitative RT-PCR's (hereby referred to as qRT-PCR) and are a combined quantitation of a minimum of 3 independent biological trials assayed in triplicate with biological replicates represented as individual scatter dots in the graphs or as indicated in legends. In all cases, statistical significance was set at a threshold of p<0.05. All statistical analyses were conducted with GraphPad Prism Software Ver. 9.0 and specific statistical test information described in figure legends."}, "HEY-T30 cells": {"test_system": "HEY-T30 cells", "test": "Flow cytometry, Annexin V / PI apoptosis", "type": "cell-based, human", "conditions": "3D, 48 hours; 10 nM BMP9, 300 nM paclitaxel or combination", "description": "700,000 cells were seeded in 60 mm poly-hema coated culture dishes, followed by incubation with 300 nM paclitaxel and 10 nM BMP9 alone or in simultaneous combination for 48 hours. Cells were centrifuged and resuspended in 1×binding buffer, followed by incubation with Annexin V and PI according to the manufacturer's procedure manual. The stained cell suspension was added to FACS tubes containing 200 μl 1×binding buffer and measured by BD LSRFortessa flow cytometer. The data were analyzed using BD FACSDiva (Becton Dickinson, NJ, USA) software. Annexin V-positive and PI-negative cells were considered to be in the early apoptotic phase, Annexin V-negative and PI-positive cells were considered to be in the necrosis phase, cells having positive staining for both Annexin-V and PI were considered to undergo late apoptosis and cells negative for Annexin V and PI were considered to be live cells."}, "[4]": {"test": "ELISA of BMP9 in plasma from mice", "type": "in vivo", "conditions": "PA1-luc-GFP mice, daily i.p. administration"}, "HEYT30 cells": {"test_system": "HEYT30 cells", "test": "Cell survival under anchorage independence, HEYT30", "type": "cell-based, human", "description": "as §2"}, "OCT4 or NANOG": {"test_system": "OCT4 or NANOG", "test": "qRT-PCR of OCT4 and NANOG under 3D condition", "type": "cell-based, human", "conditions": "PA1 cells", "description": "as §4"}},
  "data": [
    {"substance": "BMP9: recombinant human bone morphogenetic protein 9 (BMP9/GDF2), TGF-β family ligand", "values": [
      {"measurement": "SOX2 levels in xenograft tumors", "setting": "SOX2 [1]", "value": "overall reduction"},
      {"measurement": "decrease in percentage live cells", "setting": "A2780CP cells", "value": "25-55%"},
      {"measurement": "omental tumor burden", "setting": "PA1-luc-GFP cells; 5 mg/kg i.p. daily, 7-week study, vs vehicle", "value": "significantly lower"},
      {"measurement": "overall i.p. tumor burden over time by bioluminescence imaging", "setting": "PA1-luc-GFP cells; 5 mg/kg i.p. daily, vs vehicle", "value": "significant reduction"},
      {"measurement": "infiltrated tumor cells in omental tumors (histology)", "setting": "PA1-luc-GFP cells; vs vehicle", "value": "significantly fewer"},
      {"measurement": "increase in TUNEL-positive cells in tumors", "setting": "PA1-luc-GFP cells; vs vehicle-treated mice", "value": "a factor of two increase"},
      {"measurement": "decrease in percentage live cells", "setting": "HEY parental cells", "value": "50-65%"},
      {"measurement": "overall toxicity (body weight, kidney and liver function tests)", "setting": "[2]", "value": "no notable toxicity"},
      {"measurement": "SOX2 expression in other cancer types", "setting": "SOX2 [3]; A549, BON-1, H727 cells, 24 hours", "value": "downregulated"},
      {"measurement": "SOX2 in patient ascites-derived tumor cells", "setting": "SOX2 [3]; EOC15 and AF68, anchorage-independent, 48 hours", "value": "downregulated"},
      {"measurement": "anchorage-independence-induced increases in SOX2", "setting": "SOX2 [3]; OVCAR4, OVCA420, OVCA433 cells, 3D", "value": "effectively suppressed"},
      {"measurement": "dose-response of SOX2 protein", "setting": "SOX2 [3]; PA1 and OVCAR3, indicated doses, 24 h", "value": "dose-dependent repression"},
      {"measurement": "SOX2 by qRT-PCR in anchorage-independent conditions", "setting": "SOX2 [3]; PA1 cells, 3D, 24 hrs", "value": "downregulation"},
      {"measurement": "reduction in SOX2 expression under attached growth conditions", "setting": "SOX2 [3]; several cell lines incl. OVCAR3 and SKOV3, 10 nM, 24 hours", "value": "significant"},
      {"measurement": "apoptosis in cells", "setting": "HEY-T30 cells", "value": 6.8, "unit": "%"},
      {"measurement": "BMP9 in plasma (ELISA)", "setting": "[4]", "value": "elevated"},
      {"measurement": "reduction in percentage live cells", "setting": "HEYT30 cells; 10 nM", "value": 63, "unit": "%"},
      {"measurement": "reduction in percentage live cells", "setting": "HEYT30 cells; 1 and 5 nM", "value": "about 35%"},
      {"measurement": "effect on OCT4 or NANOG", "setting": "OCT4 or NANOG", "value": "did not have any significant effect"}
    ]}
  ]
}
